The record followed here is publication PMC6315057, “Industrial scale high-throughput screening delivers multiple fast acting macrofilaricides” (Nature Communications, 2019).

SMILES strings stand for the structures.

Data set [1] has as its system Wolbachia in C6/36 (wAlbB) cells. The data set is described as follows: Confirmatory re-assessment in the insect cell screen (cell assay EC50). The format is cell-based, Wolbachia pipientis wAlbB (in Aedes albopictus C6/36 cells). The settings on record: for EC50: Wolbachia, C6/36, insect cell screen, re-sourced or re-synthesised samples. An excerpt: To further validate the hit molecules from these 9 clusters, samples were sourced either from the AstraZeneca compound inventory or through re-synthesis. All 18 samples were characterised by nuclear magnetic resonance (NMR) and mass spectroscopy to confirm their chemical structures and by HPLC/LCMS to establish their purity (Supplementary Table 5 and Supplementary Data 1). These samples were also subject to confirmatory re-assessment in both the insect cell screen and Mf assays for anti-Wolbachia potency alongside confirmation of DMPK properties (LogD7.4, aqueous solubility in pH 7.4 PBS, human microsomal turnover, rat hepatocyte turnover and human plasma protein binding) (Fig. 4, Supplementary Figure 1 and Supplementary Table 4).
On day 0, a single cryovial was recovered and the cells washed before being transferred to a T225 cm^2 flask. After a 7-day recovery Wolbachia infection level (quality control (QC)) was checked by SYTO®11 DNA staining of both the host cell nuclei and intracellular Wolbachia. The end-point read out from the Operetta® high content imaging system (Perkin Elmer) was the percentage of cells infected with Wolbachia. This was obtained from cytoplasm texture analysis by the associated Harmony® software. Cells with a >50% of the population infected with Wolbachia were classed as having a good Wolbachia level and therefore used for screening through addition of 2000 cells per well into assay ready 384-well plates containing the test compounds. […] Each plate included on-board controls; vehicle/DMSO (total/maximum Wolbachia signal) or doxycycline 5 µM (null/minimum Wolbachia signal), resulting in single shot screening of 352 compounds per plate for the primary screen. […] QC plates were also created including full columns of the following controls; DMSO (total/max), 5 μM doxycycline (null/min), as well as 50 nM doxycycline (reference/medium Wolbachia signal). Daily batches contained ~150 compound plates in addition to the QC plates. Each compound plate was foil sealed before incubation for 7 days at 26 °C, 95% humidity and atmospheric air.

The next data set in a line: LogD7.4. The format is physicochemical. The settings on record: pH 7.4. The source says:
(§1) The DMPK data used for triaging compounds, including LogD7.4, aqueous solubility, plasma protein binding, microsome and hepatocyte clearance measurements, were generated using the standard AstraZeneca UK high-throughput platform[37],[38].

The nature of data set [2]: Human plasma protein binding. The format is in vitro ADME. The note with it: plasma.
Description: as §1

Data set [3] has as its system Wolbachia within Brugia malayi Mf. Kind of data set: Anti-Wolbachia time-kill analysis (timed wash-out) in B. malayi Mf. It counts as cell-based. The note with it: 10x EC50, 1 day exposure, wash, 6-day read out, normalised to vehicle control. The source says:
To compare the dynamics of the in vitro phenotype of our hits with existing anti-Wolbachia therapies, we employed a timed wash-out strategy (Fig. 5) at 10x EC50 to establish the anti-Wolbachia time-kill kinetics of the selected chemotypes (1A–5A), using five replicates per compound. […].
Fig. 5 Anti-Wolbachia time-kill analysis. Representatives from the top five clusters (1A–5A), as well as established anti-Wolbachia antibacterials (doxycycline (white), minocycline (grey), rifampicin (black)) were assessed after exposure for 1 day and 2 days before washing and further incubation until the standard 6-day read out. wsp:gst ratio was normalised to the DMSO vehicle control resulting in a read out of mean percentage reduction from control. Doxycycline day 6 treatment represents the result for exposure to doxycycline at 5 µM for a full 6 days (no wash). The box extends from the 25th to the 75th percentile with the median presented by the central line. The whiskers are set at the minimum and maximum therefore indicating the range from five replicates. The cluster number is indicated by colour: cluster 1 (dark blue), 2 (magenta), 3 (teal), 4 (dark gold), and 5 (light blue)
The Mf were obtained by peritoneal lavage, using a catheter, of gerbils (Meriones unguiculatus) harbouring a patent infection of B. malayi. Mf were purified using a PD-10 desalting column (Fisher), centrifuged (311 RCF for 5 min at room temperature) before the addition of 8000 Mf/well of a 96-well plate (100 µl per well) in complete media consisting of RPMI supplemented with 10% FBS, 1% penicillin streptomycin and 1% amphotericin B. Compounds were diluted in complete media and 100 µl was added per well, providing a final concentration of 5 µM, with five replicates per compound. Each plate contained doxycycline (5 µM) and DMSO controls. After incubation at 37 °C for 6 days in 5% CO2, visual assessment of Mf motility was performed and scored from 0 to 4 per well (where 0 = no movement and 4 = highly motile). DNA extraction per sample was performed using the QIAmp DNA Mini Kit before quantitative PCR was performed to obtain the ratio of Wolbachia Surface Protein gene copy number (wsp) to Glutathione S-Transferase gene copy number (gst)[36]. The DNA was amplified using the primers as indicated in Supplementary Table 6.
The wsp:gst ratio data allowed for normalisation of the Wolbachia level to the Mf biomass for each well. The change in wsp:gst for each compound compared to the DMSO control was calculated before normalisation to the onboard doxycycline control to allow for inter-assay comparison.

As for `Cc1nccc(N2CCC(C(=O)N(C)CCN(C)S(=O)(=O)c3ccc(Br)cc3)CC2)n1` [1A, N-(2-((4-bromo-N-methylphenyl)sulfonamido)ethyl)-N-methyl-1-(2-methylpyrimidin-4-yl)piperidine-4-carboxamide], a half-maximal response in data set [1] (EC50) required 192 nM. This molecule also registered a logD in “LogD7.4” of 2.6. This molecule showed a fraction unbound in data set [2] of 0.24. Also, the “Wolbachia reduction after a single day of exposure” value (shortened to “Wolbachia reduction”) in data set [3] was 57–67%.

Turning to `COc1ccc(CC(=O)Nc2[nH]nc(C)c2-c2ccccc2)c(Cl)c1` [2A, 2-(2-chloro-4-methoxyphenyl)-N-(3-methyl-4-phenyl-1H-pyrazol-5-yl)acetamide], it took 242 nM to reach a half-maximal effect in data set [1] (EC50). The same molecule came in with a logD in “LogD7.4” of 3.1. The fraction unbound in data set [2] is 0.021. Also, the “Wolbachia reduction” value in data set [3] is recorded as 57–67%.

`CC1COCCN1c1cc(OCc2ccccc2)nc(-c2nccn2C)n1` (stereo not drawn) [3A, 4-(6-(benzyloxy)-2-(1-methyl-1H-imidazol-2-yl)pyrimidin-4-yl)-3-methylmorpholine]: the EC50 in data set [1] worked out at 662 nM. The logD in “LogD7.4” was 3.3. The fraction unbound in data set [2] is 0.042. Also, the “Wolbachia reduction” value in data set [3] is recorded as 42%.

For the molecule `CCc1ccc(CN2CCCC2c2nc(C(=O)N(C)C)cs2)s1` (stereo not drawn) [4A, 2-(1-((5-ethylthiophen-2-yl)methyl)pyrrolidin-2-yl)-N,N-dimethylthiazole-4-carboxamide], in data set [1], the “Insect cell screen activity (in words)” value is given as “strong” and the midpoint of the response, the EC50, lay at 41 nM. For the same molecule, the logD in “LogD7.4” was 3.2. The fraction unbound in data set [2] was 0.078. The “Wolbachia reduction” value in data set [3] is listed as 57–67%.

As for `Cc1nc(C(=O)NC(C)c2ccc(F)cc2)c(NC(=O)Cc2ccccc2)[nH]1` (stereo not drawn) [5A, N-(1-(4-fluorophenyl)ethyl)-2-methyl-5-(2-phenylacetamido)-1H-imidazole-4-carboxamide], in data set [1], the EC50 was 296 nM. The molecule also had a logD in “LogD7.4” of 3.5. Further, the fraction unbound in data set [2] was 0.073. Also, the “Wolbachia reduction” value in data set [3] is reported as 57–67%.
